Legend:
[1] = system: preadipocytes; conditions: Japanese Patent Application No. 2012-240364; cited from earlier work
[2] = system: 3T3-L1 cells (mouse-derived preadipocytes); assay: Expression of indicator genes (Cidea, Cox7a1, UCP1) of differentiation induction to brown-like adipocytes, real-time RT-PCR; type: cell-based; conditions: for differentiation induction action to brown-like adipocytes from white adipocytes: 3T3-L1, overall conclusion
Method: (§1) In order to evaluate the differentiation induction action to brown-like adipocytes of white adipocytes, the evaluation was carried out using 3T3-L1 cells (mouse-derived preadipocytes). The 3T3-L1 preadipocytes are usually differentiated to white adipocytes through a differentiation induction process to be matured. However, by the differentiation induction to brown-like adipocytes, an expression of Cidea gene, an increase in the expression amount of Cox7a1 gene expressed in mitochondria, an increase in the expression amount of cytochrome c oxidase protein specifically expressed in mitochondria, and an expression enhancement of UCP1 gene, which are hardly observed in white adipocytes, are observed. Then, the differentiation induction to brown-like adipocytes of white adipocytes was confirmed based on the expression amount of each gene of Cidea, Cox7a1, and UCP1.
For samples, two substances of resveratrol and UHA1028 were used. Since the action of the differentiation induction to brown-like adipocytes was not observed in sinapic acid, sinapic acid was not used as a comparison target. Each sample was dissolved in dimethylsulfoxide (DMSO, manufactured by Wako Pure Chemical Industries, Ltd.) with a concentration of 4 mM and 2 mM to be used for a test.
Culture was carried out using “Dulbecco's modified Eagle medium” (DMEM, Product name, manufactured by Sigma-Aldrich Corporation) containing 10% “Foetal Bovine Serum” (FBS, manufactured by Biological industries), 1% “Antibiotic-Antimycotic”, and GIBCO (manufactured by Life Technology Corporation). Adipocytes to be used for the test were prepared in accordance with a usual method.
The test was carried out as follows. 2 mL of 3T3-L1 cells were sowed with a concentration of 5×10^4 cells/mL in a 6 well dish for cell culture (manufactured by Japan Becton, Dickinson and Company), and then cultured under the conditions of 37° C. and 5% CO2 for 24 hours. 24 hours later, the DMEM culture medium was exchanged to a DMEM culture medium which was adjusted in such a manner that the final concentration of the UHA1028 was 10 μM or the final concentration of the resveratrol was 20 μM, culture was continued in such a manner that the cells were confluent to 100%, and then culture was further carried out for 48 hours. Next, the culture medium was exchanged to a culture medium in which 10 μL of each sample (Final concentration of 20 μM and 10 μM) was added to 2 mL DMEM for differentiation, to which 1% of insulin, 0.5% of dexamethasone, and 0.1% of isobutylmethylxanthine were added, attached to “AdipoInducer Reagent” (Product name, manufactured by Takara Bio, Inc.), and then differentiation induction was carried out under the conditions of 37° C. and 5% CO2 for 48 hours. After the differentiation induction for 48 hours, the culture medium was exchanged to 2 mL of DMEM for maintaining culture to which 1% of insulin was added, and then culture was further carried out for one week for maturing adipocytes. One to which 0.5% of only DMSO which is a solvent was added was used as a control.
After the end of the culture, the total amount RNA was extracted from the cells using an RNA extraction kit (Product name: NucleoSpin (Registered Trademark) RNA II, manufactured by Takara Bio, Inc.) and refined. […]

[3] = system: 3T3-L1 cells (mouse-derived preadipocytes); assay: Expression of indicator protein CO1 (mitochondria marker), Western blot; type: cell-based
Method: as §1, with “an” for “an expression of Cidea gene, an increase in the expression amount of Cox7a1 gene expressed in mitochondria, an”, “mitochondria is” for “mitochondria, and an expression enhancement of UCP1 gene, which are hardly observed in white adipocytes, are”, “the CO1 protein.” for “each gene of Cidea, Cox7a1, and UCP1.”
Culture of cells was carried out by the same method as that of Example 2 using the same samples and cells as those in Example 2. […] After the extraction, the protein concentration was measured using a BCA protein assay kit (manufactured by Thermo Fisher Scientific K.K.). […]
After the electrophoresis, the proteins are transferred to PVDF membranes (manufactured by EMD Millipore) by a semidry blotting device “TRANS-BLOT S-D SEMI-DRY TRANSFER CELL” (Product name, manufactured by Bio-Rad Laboratories Inc.), and then blotting was carried out by Immunoblock (manufactured by DS Pharma Biomedical Co., Ltd.). […] The band strength of the detected band was calculated using an image analysis software “Image J”.

[4] = system: mature adipocytes; conditions: Japanese Patent Application No. 2011-145331; cited from earlier work
[5] = system: human vascular endothelial cells; conditions: Japanese Patent Application No. 2011-118367; cited from earlier work
[6] = system: mature adipocytes; conditions: Japanese Patent Application No. 2011-186054; cited from earlier work
[7] = 3T3-L1, UHA1028 10 μM, as compared with resveratrol 20 μM, FIG. 1

Compound	differential inhibition action to mature adipocytes of preadipocytes [1]	expression amount of the Cox7a1 (mitochondria marker gene) [2, 7]	expression amount of the UCP1 gene [2, 7]	gene expression amount of the Cidea (marker gene of the brown-like adipocytes) [2, 7]	differentiation induction action to brown-like adipocytes from white adipocytes [2]	mitochondria marker protein (CO1) expressed in mature adipocytes ([3]; 3T3-L1, Western blot band strength, as compared with DMSO and resveratrol, FIG. 2)	amount of mitochondria in the cells ([3]; 3T3-L1, results of Examples 2 and 3, as compared with resveratrol)	adiponectin production promotion action [4]	sirtuin expression promotion action [5]	lipoprotein lipase promotion action [6]
COc1cc(C(C)c2c(O)cc(/C=C/c3ccc(O)cc3)cc2O)cc(OC)c1O (centres unmarked) [UHA1028]	differential inhibition action	significantly increased	significantly increased	significantly increased	notably induced	significantly large	significantly increased	adiponectin production promotion action	sirtuin expression promotion action	lipoprotein lipase promotion action
COc1cc(/C=C/C(=O)O)cc(OC)c1O [sinapic acid, reference compound]					not observed					

From patent US8987522B2, “Differentiation inducer to brown-like adipocyte of white adipocyte” (Uha Mikakuto Co., Ltd., priority 2012, dated 2015)
